Reference: article PMC2248166, “Quantitative peptide binding motifs for 19 human and mouse MHC class I molecules derived using positional scanning combinatorial peptide libraries” (Immunome Research, 2008)

Assays:
HLA A*3001 = HLA A*3001 (Homo sapiens, UniProt P04439, D140H/D185E/E176W/F33S/G80R/H175R/K168Q/R138E/R41S); assay: biochemical; format: binding
HLA A*3201 = HLA A*3201 (Homo sapiens, UniProt P04439, A270S/D101S/D185E/E176V/E277Q/F133L/G103R/G107R/G231S/H175R/I121M/I218V/I322F/K168Q/L105A/L300P/L318F/M331R/P208A/P217A/Q94H/R106L/R138Q/S129P/T104I/T323A/T345S/V100E/V321M/V358M); assay: biochemical; format: binding
HLA A*6802 = HLA A*6802 (Homo sapiens, UniProt P04439, A269V/D140Y/D185E/E176V/E277Q/E87N/F33Y/G231S/I121R/I166T/I218V/L180W/L300P/L318F/N151K/P208A/P217A/Q86R/R138H/R169H/S129P/T345S/V36M); format: binding
HLA B*0702 = HLA B*0702 (Homo sapiens, UniProt P01889); format: binding; details: positional scanning combinatorial 9-mer library; normalized to 1.0 for the best residue at each position
HLA B*0801 = HLA B*0801 (Homo sapiens, UniProt P01889, A93T/A95T/D138N/E176V/E187T/K202T/Q94N/R180D/S35A/V36M/Y33D/Y91F); assay: biochemical; format: binding
HLA B*1501 = HLA B*1501 (Homo sapiens, UniProt P01889, A329T/A93T/A95T/C349S/D201E/D98Y/E187L/E204Q/E69M/E70A/K202T/N87E/Q94N/R155S/R180W/S121R/S35A/S48A/V306I/V36M/Y140S/Y91S); assay: biochemical; format: binding
HLA B*1503 = HLA B*1503 (Homo sapiens, UniProt P01889, A329T/A93T/A95T/C349S/D201E/D98Y/E187L/E204Q/K202T/N87E/Q94N/R155S/R180L/S121R/S35A/V306I/V36M/Y140S/Y91S); assay: biochemical; format: binding
HLA B*2705 = HLA B*2705 (Homo sapiens, UniProt P01889, D138H/D201E/E176V/E204Q/G107R/H137Y/K202T/N104T/N87E/Q56L/Q94K/R106L/R155S/R180L/S101D/S121N/S48T/Y140D/Y33H/Y91C); format: binding; details: positional scanning combinatorial 9-mer library; normalized to 1.0 for the best residue at each position
HLA B*3501 = HLA B*3501 (Homo sapiens, UniProt P01889, A329T/A93T/A95T/C349S/D201E/D98Y/E176V/E187L/E204Q/E69T/I218V/K202T/L119I/Q94N/R155S/R180L/S121R/S35A/S48A/T118I/V127L/V306I/V36M/Y140S/Y91F); format: binding
HLA B*5101 = HLA B*5101 (Homo sapiens, UniProt P01889, A329T/A93T/A95T/C349S/D138N/D201E/D98Y/E187L/E204Q/E69T/G107R/I218V/K202T/L105A/L119W/N104I/Q94N/R106L/R155S/R180L/S101N/S121T/S35A/S48A/V306I/V36M/Y195H/Y91F); format: binding
HLA B*5301 = HLA B*5301 (Homo sapiens, UniProt P01889, A329T/A93T/A95T/C349S/D201E/D98Y/E176V/E187L/E204Q/E69T/G107R/I218V/K202T/L105A/L119I/N104I/Q94N/R106L/R155S/R180L/S101N/S121R/S35A/S48A/T118I/V127L/V306I/V36M/Y140S/Y91F); format: binding
HLA B*5401 = HLA B*5401 (Homo sapiens, UniProt P01889, A329T/C349S/D138N/D201E/E176V/E187T/E204Q/E69G/I76V/K202T/L119W/R155S/R180L/S121T/S35A/S48A/V127L/V306I/V36M/Y140L); format: binding
HLA B*5801 = HLA B*5801 (Homo sapiens, UniProt P01889, A329T/C349S/D201E/D98Y/E176V/E187L/E204Q/E69T/G107R/I218V/I90N/K202T/L105A/L119I/N104I/N87E/Q89R/Q94S/R106L/R155S/R180L/R86G/S101N/S121R/S35A/S48A/T118I/V127L/V306I/V36M/Y140S/Y91M); format: binding
HLA B*5802 = HLA B*5802 (Homo sapiens, UniProt P01889, A329T/C349S/D201E/D98Y/E176V/E187L/E204Q/E69T/G107R/I218V/I90N/K202T/L105A/N104I/N87E/Q89R/Q94S/R106L/R155S/R180L/R86G/S101N/S121W/S35A/S48A/V127L/V306I/V36M/Y140S/Y91M); format: binding
H-2 D^b = H-2 D^b (Mus musculus, UniProt P01899); format: binding
H-2 D^b, sequence (P01887 21-119): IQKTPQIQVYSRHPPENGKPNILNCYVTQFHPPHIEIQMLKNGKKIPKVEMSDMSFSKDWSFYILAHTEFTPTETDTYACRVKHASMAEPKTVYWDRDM
H-2 D^b, sequence (P01899 25-362): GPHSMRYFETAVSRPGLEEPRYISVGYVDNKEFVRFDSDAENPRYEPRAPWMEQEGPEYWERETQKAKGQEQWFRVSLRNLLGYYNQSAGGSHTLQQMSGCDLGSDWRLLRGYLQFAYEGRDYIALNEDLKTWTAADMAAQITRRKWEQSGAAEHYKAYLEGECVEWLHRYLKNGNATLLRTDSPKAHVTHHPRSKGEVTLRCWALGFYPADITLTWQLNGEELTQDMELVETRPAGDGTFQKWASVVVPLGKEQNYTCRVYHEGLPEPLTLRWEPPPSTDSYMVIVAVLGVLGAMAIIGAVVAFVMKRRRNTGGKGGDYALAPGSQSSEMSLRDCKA

H-2 D^d = H-2 D^d (Mus musculus, UniProt P01900); format: binding
H-2 D^d, sequence (P01900 whole entry, looked up): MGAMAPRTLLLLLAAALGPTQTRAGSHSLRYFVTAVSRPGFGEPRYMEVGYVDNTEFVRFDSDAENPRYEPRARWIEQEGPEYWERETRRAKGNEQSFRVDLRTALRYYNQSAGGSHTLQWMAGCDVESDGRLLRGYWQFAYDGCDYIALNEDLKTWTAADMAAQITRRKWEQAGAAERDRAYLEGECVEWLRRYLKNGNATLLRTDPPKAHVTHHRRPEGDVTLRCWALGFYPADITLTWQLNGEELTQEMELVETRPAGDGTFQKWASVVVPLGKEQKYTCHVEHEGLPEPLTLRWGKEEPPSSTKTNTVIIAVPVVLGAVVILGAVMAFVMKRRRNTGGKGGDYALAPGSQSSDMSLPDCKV

H-2 K^k = H-2 K^k (Mus musculus, UniProt P04223); format: binding
H-2 K^k, sequence (P01887 21-119): as the sequence (P01887 21-119) above
H-2 K^k, sequence (P04223 22-369): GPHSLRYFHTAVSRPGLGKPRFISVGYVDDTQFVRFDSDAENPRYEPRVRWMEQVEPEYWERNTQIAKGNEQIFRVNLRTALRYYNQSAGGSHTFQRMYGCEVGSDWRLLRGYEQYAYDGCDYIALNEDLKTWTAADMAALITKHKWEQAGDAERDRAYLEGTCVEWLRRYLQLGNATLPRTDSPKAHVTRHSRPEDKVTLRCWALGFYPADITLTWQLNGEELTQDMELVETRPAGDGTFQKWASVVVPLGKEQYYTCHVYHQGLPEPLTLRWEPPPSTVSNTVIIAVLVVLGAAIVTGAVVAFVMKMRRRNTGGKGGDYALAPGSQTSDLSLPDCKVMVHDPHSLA

HLA A*0201 = HLA A*0201 (Homo sapiens, UniProt P04439, D140Y/D185E/D98H/E176V/E277Q/G131W/G231S/I119V/I121R/I166T/I218V/L300P/L318F/N151K/N90K/P208A/P217A/Q86G/Q94H/R138H/R169H/T345S); details: positional scanning combinatorial 9-mer library; normalized to 1.0 for the best residue at each position

**Q.** For MXXXXXXXX [3064.0011], which “Normalized average relative binding affinity (ARB), HLA A*3001” value (HLA A*3001) is on record?
**A.** The value was 0.37.

**Q.** What about the “Normalized average relative binding affinity (ARB), HLA A*3201” value (HLA A*3201) of the same sequence?
**A.** Its value is 0.76.

**Q.** What about the “Normalized average relative binding affinity (ARB), HLA A*6802” value (HLA A*6802) of the same sequence?
**A.** The value was 0.75.

**Q.** And the “Normalized average relative binding affinity (ARB), HLA B*0702” value (HLA B*0702)?
**A.** The value was 0.56.

**Q.** What about the “Normalized average relative binding affinity (ARB), HLA B*0801” value (HLA B*0801) of the same sequence?
**A.** Its value is 0.79.

**Q.** What about the “Normalized average relative binding affinity (ARB), HLA B*1501” value (HLA B*1501) of the same sequence?
**A.** The value was 0.89.

**Q.** And the “Normalized average relative binding affinity (ARB), HLA B*1503” value (HLA B*1503)?
**A.** Its value is 0.40.

**Q.** And the “Normalized average relative binding affinity (ARB), HLA B*2705” value (HLA B*2705)?
**A.** Its value is 0.44.

**Q.** What about the “Normalized average relative binding affinity (ARB), HLA B*3501” value (HLA B*3501) of the same sequence?
**A.** The value was 0.90.

**Q.** And the “Normalized average relative binding affinity (ARB), HLA B*5101” value (HLA B*5101)?
**A.** The value was 0.32.

**Q.** What about the “Normalized average relative binding affinity (ARB), HLA B*5301” value (HLA B*5301) of the same sequence?
**A.** Its value is 0.26.

**Q.** What about the “Normalized average relative binding affinity (ARB), HLA B*5401” value (HLA B*5401) of the same sequence?
**A.** The value was 1.0.

**Q.** What about the “Normalized average relative binding affinity (ARB), HLA B*5801” value (HLA B*5801) of the same sequence?
**A.** The value was 0.70.

**Q.** What about the “Normalized average relative binding affinity (ARB), HLA B*5802” value (HLA B*5802) of the same sequence?
**A.** Its value is 0.21.

**Q.** What about the “Normalized average relative binding affinity (ARB), H-2 Db” value (H-2 D^b) of the same sequence?
**A.** Its value is 0.18.

**Q.** What about the “Normalized average relative binding affinity (ARB), H-2 Dd” value (H-2 D^d) of the same sequence?
**A.** The value was 0.75.

**Q.** And the “Normalized average relative binding affinity (ARB), H-2 Kk” value (H-2 K^k)?
**A.** The value was 0.78.

**Q.** And the “Normalized average relative binding affinity (ARB), HLA A*0201” value (HLA A*0201)?
**A.** The value was 0.25.

**Q.** What does the source list for XXVXXXXXX [3064.0058]?
**A.** Normalized average relative binding affinity (ARB), HLA A*3001 (HLA A*3001): 0.0059; Normalized average relative binding affinity (ARB), HLA A*3201 (HLA A*3201): 0.31; Normalized average relative binding affinity (ARB), HLA A*6802 (HLA A*6802): 0.64; Normalized average relative binding affinity (ARB), HLA B*0702 (HLA B*0702): 0.040; Normalized average relative binding affinity (ARB), HLA B*0801 (HLA B*0801): 0.024; Normalized average relative binding affinity (ARB), HLA B*1501 (HLA B*1501): 0.14; Normalized average relative binding affinity (ARB), HLA B*1503 (HLA B*1503): 1.0; Normalized average relative binding affinity (ARB), HLA B*2705 (HLA B*2705): 0.19; Normalized average relative binding affinity (ARB), HLA B*3501 (HLA B*3501): 0.19; Normalized average relative binding affinity (ARB), HLA B*5101 (HLA B*5101): 0.25; Normalized average relative binding affinity (ARB), HLA B*5301 (HLA B*5301): 0.11; Normalized average relative binding affinity (ARB), HLA B*5401 (HLA B*5401): 0.034; Normalized average relative binding affinity (ARB), HLA B*5801 (HLA B*5801): 1.0; Normalized average relative binding affinity (ARB), HLA B*5802 (HLA B*5802): 0.56; Normalized average relative binding affinity (ARB), H-2 Db (H-2 D^b): 0.17; Normalized average relative binding affinity (ARB), H-2 Dd (H-2 D^d): 0.0094; Normalized average relative binding affinity (ARB), H-2 Kk (H-2 K^k): 0.26; Normalized average relative binding affinity (ARB), HLA A*0201 (HLA A*0201): 0.25

**Q.** LXXXXXXXX [3064.0010] was tested. Which “Normalized average relative binding affinity (ARB), HLA A*3001” value (HLA A*3001) did it give?
**A.** Its value is 0.081.

**Q.** And the “Normalized average relative binding affinity (ARB), HLA A*3201” value (HLA A*3201)?
**A.** Its value is 0.48.

**Q.** And the “Normalized average relative binding affinity (ARB), HLA A*6802” value (HLA A*6802)?
**A.** The value was 0.071.

**Q.** And the “Normalized average relative binding affinity (ARB), HLA B*0702” value (HLA B*0702)?
**A.** Its value is 0.23.

**Q.** And the “Normalized average relative binding affinity (ARB), HLA B*0801” value (HLA B*0801)?
**A.** The value was 0.22.

**Q.** What about the “Normalized average relative binding affinity (ARB), HLA B*1501” value (HLA B*1501) of the same sequence?
**A.** Its value is 0.61.

**Q.** What about the “Normalized average relative binding affinity (ARB), HLA B*1503” value (HLA B*1503) of the same sequence?
**A.** Its value is 0.52.

**Q.** And the “Normalized average relative binding affinity (ARB), HLA B*2705” value (HLA B*2705)?
**A.** Its value is 0.26.

**Q.** What about the “Normalized average relative binding affinity (ARB), HLA B*3501” value (HLA B*3501) of the same sequence?
**A.** Its value is 0.31.

**Q.** What about the “Normalized average relative binding affinity (ARB), HLA B*5101” value (HLA B*5101) of the same sequence?
**A.** Its value is 0.41.

**Q.** And the “Normalized average relative binding affinity (ARB), HLA B*5301” value (HLA B*5301)?
**A.** The value was 0.14.

**Q.** What about the “Normalized average relative binding affinity (ARB), HLA B*5401” value (HLA B*5401) of the same sequence?
**A.** Its value is 0.19.

**Q.** And the “Normalized average relative binding affinity (ARB), HLA B*5801” value (HLA B*5801)?
**A.** Its value is 0.53.

**Q.** What about the “Normalized average relative binding affinity (ARB), HLA B*5802” value (HLA B*5802) of the same sequence?
**A.** The value was 0.044.

**Q.** And the “Normalized average relative binding affinity (ARB), H-2 Db” value (H-2 D^b)?
**A.** Its value is 0.20.

**Q.** What about the “Normalized average relative binding affinity (ARB), H-2 Dd” value (H-2 D^d) of the same sequence?
**A.** The value was 0.29.

**Q.** And the “Normalized average relative binding affinity (ARB), H-2 Kk” value (H-2 K^k)?
**A.** Its value is 0.49.

**Q.** And the “Normalized average relative binding affinity (ARB), HLA A*0201” value (HLA A*0201)?
**A.** Its value is 0.054.
